The NIST ThermoML archive (doi:10.1021/je200640q)
± gives the expanded uncertainty stated by the source.

Key:
[1] = Crystal; DTA
[2] = Molar enthalpy of transition or fusion; conditions: Crystal; DSC

For `CC(C)(c1ccc(O)cc1)c1ccc(O)cc1` [2,2-(4',4''-dihydroxy)diphenylpropane], the Normal melting temperature [1] was 156.50 ± 0.5 °C and the “Molar enthalpy of transition or fusion” value [2] was 7.34 ± 0.215 kcal/mol.
